Measurements published in patent US20130259929A1, “USE OF A PHOSPHOPEPTIDE ABLE TO BLOCK HER3/P85 INTERACTION FOR THE TREATMENT OF HER2 HYPER-EXPRESSING TUMOURS” (priority 2010, published 2013).
Non-standard residues stand in square brackets, D forms with d. No end group written: not given here. pY = N[C@@H](Cc1ccc(OP(=O)(O)O)cc1)C(=O)O

Assays:
[1] = target: T1, p85 and p110a (PI3K catalytic sub-unit) interaction (Homo sapiens, UniProt P27986); experiment: Immunoprecipitation with anti-p85, blot anti-p110α, in transfected cells; type: cell-based; conditions: transfected cells (FIG. 2D)
T1 construct: Whole cell lysates have been imunoprecipitated with anti-p85 antibody; endogenous in cells; host or cells: MCF7, BT474, MDA-MB-453
T1 sequence (P27986 whole entry): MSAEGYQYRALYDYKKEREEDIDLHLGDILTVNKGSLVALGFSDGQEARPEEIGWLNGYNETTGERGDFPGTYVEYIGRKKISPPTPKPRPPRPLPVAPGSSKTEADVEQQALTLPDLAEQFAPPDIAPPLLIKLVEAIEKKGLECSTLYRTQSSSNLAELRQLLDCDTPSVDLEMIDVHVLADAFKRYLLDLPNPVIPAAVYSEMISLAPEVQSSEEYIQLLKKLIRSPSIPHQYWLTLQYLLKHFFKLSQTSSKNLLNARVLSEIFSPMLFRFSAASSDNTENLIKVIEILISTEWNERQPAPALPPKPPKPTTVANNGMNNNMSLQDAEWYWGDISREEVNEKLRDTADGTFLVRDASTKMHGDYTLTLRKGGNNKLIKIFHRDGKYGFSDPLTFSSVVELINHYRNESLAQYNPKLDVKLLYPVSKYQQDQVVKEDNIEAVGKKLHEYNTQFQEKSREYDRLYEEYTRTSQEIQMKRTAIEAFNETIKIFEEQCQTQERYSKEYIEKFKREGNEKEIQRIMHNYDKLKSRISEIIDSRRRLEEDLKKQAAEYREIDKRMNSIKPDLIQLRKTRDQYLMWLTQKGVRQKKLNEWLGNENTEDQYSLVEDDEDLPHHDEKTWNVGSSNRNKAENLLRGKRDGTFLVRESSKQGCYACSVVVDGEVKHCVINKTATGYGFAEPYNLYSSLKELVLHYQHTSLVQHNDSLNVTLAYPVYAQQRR
Procedure: (§1) Immunoprecipitation. MCF7, BT474 and MDA-MB-453 cell lines have been plated at 5×10^5 concentration in 60 mm plates. On subsequent day cells have been transfected with 1257 phosphopeptide and contrrol phosphopeptide. After 40 hours the cells have been washed two times with cold PBS and extracted with lysis buffer [(50 mM Tris HCl (pH 7.4), 250 mM NaCl, 0.1% Triton X-100, 5 mM EDTA, 50 mM NaF, 1 mM PMSF, 5 mM Na3VO4 e 50 mmol/L protease inhibitors (Roche, Milan, IT)]. Whole cell lysates have been imunoprecipitated with anti-p85 antibody (#06-496) in the presence of protein G (Pierce, Milan, IT). Whole proteins and immunocomplexes then have been subjected to 8% SDS-PAGE and transferred on nitrocellulose filter. The proteins have been detected by immunodecoration using anti-ErbB3 and anti-p110α antibodies.
(§2) The peptide has been transfected using Lipofectamine in all three cell lines. […] This binding is required in order PI3K kinase to be activated.

[2] = system: PI3K activity measured as Akt phosphorylation; experiment: Akt phosphorylation (Western blot) after peptide transfection; type: cell-based, human; conditions: for inhibition of PI3K activity measured as inhibition level of Akt phosphorylation: MCF7 cells, peptide transfection at different doses (FIG. 12)
Procedure: (§3) Peptide transfection. In order to inhibit the p85 and ErbB3 interaction, MCF7, BT474 and MDA-MB-453 cell lines have been transfected using 80, 100, and 180 μg, respectively, of the following phosphopeptides:
(§4) Treatments and lmmunodecorations. […] Briefly the cells have been plated at 5×10^5 concentration in 60 mm plates. […] At the end of the treatment the cells have been lysed with RIPA buffer [150 mM NaCl, 1% NP-40, 0,5% sodium deoxycholate (DOC), 0.1% SDS, 50 mM TrisHCl (pH 8), 1 mM PMSF, 1 mM EGTA, 50 mM NaF, 50 mM Na3VO4 and protease inhibitors (Roche, Milano, IT)] in order to analyze the expression levels of phosphorylated and total ErbB-3, ErbB-2, ERK and HSP-70 proteins. In order to analyze the levels of Akt phosphorylation and expression, the cells have been lysed in NP-40 buffer [1% NP-40, 10% glycerol, 137 mM NaCl, 20 mM TrisHCl (pH 7.4), 50 mM NaF, 1 mM PMSF, 5 mM Na3VO4, protease inhibitors (Roche, Milano, IT)]. Cell lysates have been incubated on ice for 20 minutes and centrifuged at 14000 rpm for 20 minutes. RIPA buffer obtained cell extracts have been boiled for 5 minutes at 95° C., while NP40 buffer lysed samples have been boiled at 65° C. for 5 minutes. Samples have been subjected to SDS-PAGE and transferred on nitrocellulose filters (Bio-Rad, Milan, IT). Then the filters have been incubated with interest antibodies, washed and incubated with specific secondary horse radish peroxidase (HRP) conjugated antibodies. After thorough washing, nitrocellulose peroxidase activity has been detected by chemiluminescence (Lite-blot-Euroclone, Milano, IT)

p85 and HER3 interaction = target: T2, p85 and HER3 interaction (Homo sapiens, UniProt P27986); experiment: Immunoprecipitation with anti-p85, blot anti-HER3, in transfected cells; type: cell-based; conditions: three cell lines, 48 hr after Lipofectamine transfection (FIG. 2B)
T2 construct: Whole cell lysates have been imunoprecipitated with anti-p85 antibody; endogenous in cells; host or cells: MCF7, BT474, MDA-MB-453
T2 sequence (P27986 whole entry): as above
From the text: as §1, with “After 40 hours the cells have been washed two times with cold PBS and extracted with lysis buffer [(50 mM Tris HCl (pH 7.4), 250 mM NaCl, 0.1% Triton X-100, 5 mM EDTA, 50 mM NaF, 1 mM PMSF, 5 mM Na3VO4 e 50 mmol/L protease inhibitors (Roche, Milan, IT)].” left out
as §2

MCF7 xenograft = experiment: Electroporation tumour therapy of MCF7 xenografts; type: in vivo, SCID mice
Procedure: Xeno-grafts. In vivo tests have been carried out using 40 day old SCID female mice (Harlan Laboratories, Milan, IT). At day 0, animals have been totally anesthetized with intramuscular injection of 400 μg/animal (average weight 25 g) of Zoletil (Virbac) containing 0.12% Xylor (Xylazine), and transplanted subcutaneously (s.c.), in intrascapular mouse region with pellet of […] (1.7 mg/sustained release pellet over 60 days, Innovative Research of America, Sarasota, Fla.). On the next day, 5×10^6 proliferating and scr and 1257 peptide previously transfected, as above described, MCF7 or BT474 cells, have been re-suspended in 0.1 ml of Matrigel (BD Biosciences) and subcutaneously inoculated in each mouse. […] Tumour growth has been monitored two times weekly using calibration along two orthogonal axes: length (L) and […]. The tumour volume (V) has been calculated using the formula V=L*(W2)/2. All the procedures relating to animals and treatment thereof have been carried out according institutional guidelines.
Electroporation tumour therapy. […] A dilute solution of 1257 peptide (75 ug) in 15 ul of sterile PBS has been directly injected in each xenograft, which subsequently has been electrode pulsed. PBS diluted scr peptide has been used as control, according to same procedure. As a further control we have analyzed two groups of not peptide injected animals, except that one of two was subjected to electroporation. Therapy has been repeated once weekly, and tumour size monitored up to 70 days.
Tumour size has been measured at regular intervals (alternate days) using a caliber and tumour volume has been calculated as above described. In order to minimize animal pain during the electroporation, tests have been carried out under total anesthesia. All the procedures concerning animals and treatment thereof have been carried out according to institutional guidelines.
In an attempt to use an experimental approach mimicking human therapy, scr or 1257 phosphopeptides has been administered directly into tumour. The administration of the peptide has been carried out by injection and successive electroporation in order to allow the phosphopeptide penetration. This technique facilitating the drug absorption from the tumour is used for human mainly to treat superficial lesions like melanomas, skin tumours or cutaneous metastases, but currently it is also used for carcinomas during pre-operation sessions. The peptide administration has been carried out when the tumour volume was 200 mm^3.

MAPK phosphorylation = experiment: MAPK (ERK1/2) phosphorylation (Western blot) after peptide transfection; type: cell-based, human; conditions: MCF7, BT474 and MDA-MB-453 cells (FIG. 4A); Herceptin where combined
Procedure: as §3
as §4, with “Samples have been subjected to SDS-PAGE and transferred on nitrocellulose filters (Bio-Rad, Milan, IT). Then the filters have been incubated with interest antibodies, washed and incubated with specific secondary horse radish peroxidase (HRP) conjugated antibodies.” left out

HER3 = HER3 expression level (Western blot) after peptide transfection; type: cell-based, human; conditions: after peptide treatment (FIG. 4A); poorly appreciable in MDA-MB-453
Procedure: as §4

HER2 = HER2 expression level and ErbB-2 homodimer (Western blot) after peptide transfection; type: cell-based, human
Procedure: as §4

[3] = intra-tumour injection + electroporation once weekly, MCF7

inhibition of p85 and p110a interaction [1]: inhibits p85 from interacting with p110a
Substance: RDGGGPGGDpYAAMGACPA (RDGGGPGGD[pY]AAMGACPA; listed as Homo sapiens) [1257 phosphopeptide]
phosphorylation of Akt ([2]; MCF7, BT474 and MDA-MB-453 cells (FIG. 4A), Herceptin where combined): inhibition the phosphorylation of Akt | inhibition of PI3K activity measured as inhibition level of Akt phosphorylation [2]: remarkably inhibits Akt phosphorylation | inhibition of PI3K activity measured as inhibition level of Akt phosphorylation ([2]; listed as 1257 peptide): high efficiency | time after transfection for which Akt phosphorylation is inhibited ([2]; stability inside of cell (FIG. 5A)): up to 6 days | inhibition of p85 and HER3 interaction (p85 and HER3 interaction): inhibits effectively p85 and HER3 interaction | apoptosis in tumours (TUNNEL assay) (MCF7 xenograft; immunohistochemistry of electroporation treated tumours (FIG. 9A)): go in apoptosis | proliferation in tumours (Ki67 assay) (MCF7 xenograft; immunohistochemistry of electroporation treated tumours (FIG. 9B)): low proliferating index | inhibition of tumour growth compared to control not treated tumours (MCF7 xenograft; [3]): 58% | inhibition of tumour growth compared to scr peptide inoculated tumours (MCF7 xenograft; [3]): 50% | MAPK phosphorylation (MAPK phosphorylation): inhibition of MAPK phosphorylation | total level of HER3 (HER3): decrease | total level of HER2 (HER2; after peptide treatment (FIG. 4A), poorly appreciable in MDA-MB-453): decrease | ErbB-2 homodimer levels (HER2; not reducing conditions (FIG. 5B)): favours the formation of ErbB-2 homodimer
